In patent publication US8623820B2, “FGF-9 and its use relating to blood vessels” (University of Western Ontario, priority 2008, dated 2014):

Assays:
[1] = system: CD31-positive endothelial cell-lined microvessels; test: Subcutaneous matrigel plug angiogenesis, CD31 immunostaining; assay type: in vivo, C57/Bl6 mice
Description: Matrigel plugs were mixed with either 500 ng/mL FGF-9, 500 ng/mL FGF-2 or 500 ng/mL FGF-2 and 200 ng/mL FGF-9 and subcutaneously injected into 3 month old C57/Bl6 mice. Mice were sacrificed and matrigel plugs were harvested 8 days after implantation and immunostained for CD31 (brown), to identify endothelial cell-lined microvessels.
CD31-positive microvessels immunostained in FIGS. 5B and 5C are quantified.

[2] = system: SM α-actin expressing mural cells at nascent microvessels; test: Matrigel plug, CD31 / SM α-actin immunostaining of 8 μm sections; assay type: in vivo, C57/Bl6 mice; settings: 8 days after implantation
Description: Photomicrographs of 8 μm-thick sections of Matrigel plugs harvested 8 days after implantation into C57/Bl6 mice and immunostained for CD31 (brown) and smooth muscle α-actin (red) and quantification of the percentage of microvessels supported by smooth muscle (SM) α-actin positive cells.

[3] = system: SM α-actin positive cells on CD31 nascent blood vessels; test: Matrigel plug, SM α-actin coverage of CD31-positive vessels in 200 μm sections; assay type: in vivo, mice; settings: 200 μm thick sections, 8 days after implantation
Description: Photomicrographs of Matrigel plugs harvested 8 days after implantation, cut into 200 μm thick-sections and immunostained for CD31 (left panel) and SM α-actin (central panel) and quantitation of SM α-actin coverage of CD31-positive vessels.

[4] = system: microvessels in matrigel plug; test: Intravital vasoreactivity of matrigel plug microvessels; assay type: in vivo, mice; settings: 14 days after matrigel injection
Description: 14 days after matrigel injection mice were anesthetized, the skin overlying a matrigel was surgically removed and a catheter to deliver drugs was sutured in the region of the plug. FITC-labeled dextran was injected via tail vein and the diameter of vessels in the matrigel plug was visualized using an inverted fluorescent microscope. Doses of vasoconstrictors indicated in FIG. 9 were applied and images of vessels were acquired over 5 minutes.
In separate experiments, doses of the vasoconstrictor PE followed by the vasodilator were applied to the blood vessels in matrigel plugs.

Sonic Hedgehog signaling = test: Matrigel plug with cyclopamine, CD31 / SM α-actin immunostaining; assay type: in vivo, mice; settings: FGF-2+FGF-9 plugs with 500 nM cyclopamine
Description: FIG. 15A. RT-PCR of human aortic SMCs stimulated with increasing concentrations of recombinant FGF-9 for 24 h. 15B, RT-PCR of human aortic SMCs overexpressing cDNA encoding GFP or FGF-9. 15C, Western Blots of C57/Bl6 dermal fibroblasts pretreated with either DMSO or 500 nM cyclopamine and subsequently stimulated with vehicle or FGF-9 for 24 hr. 15D. Photomicrographs of FGF-2 and FGF-9 containing matrigel plugs with either DMSO or cyclopamine double immunolabeled for CD31 (brown) and sm α-actin (red). E Quantitation of SM α-actin coverage of CD31-positive vessels representative of 6 mice bearing FGF-2 or FGF-2+FGF-9 with either vehicle or 500 nM cyclopamine (79±4 vs 38±4.8, p<0.05).

| Compound | area of CD31-positive microvessels ([1]; matrigel plugs, 8 days after implantation) | angiogenesis, CD31 immunoreactivity inside the matrigel ([1]; plugs with 500 ng/mL FGF-9, 500 ng/mL FGF-2 or 500 ng/mL FGF-2 and 200 ng/mL FGF-9, harvested 8 days after implantation) | percentage of microvessels supported by smooth muscle (SM) α-actin positive cells [2] [%] | SM α-actin positive cell coverage of CD31 nascent blood vessels [3] [%] | constriction of microvessels in response to phenylephrine (PE) and KCl [4] | SM α-actin coverage of CD31-positive vessels (Sonic Hedgehog signaling) |
| --- | --- | --- | --- | --- | --- | --- |
| FGF-2: fibroblast growth factor 2, angiogenic polypeptide used as comparator and co-factor | equivalent levels of angiogenesis | induce angiogenesis | 37±5.4 | 7.2±1.8 | mild if any response |  |
| CC1=C2C[C@H]3[C@@H](CC=C4C[C@@H](O)CC[C@@]43C)[C@@H]2CC[C@]12O[C@@H]1C[C@H](C)CN[C@H]1[C@H]2C [cyclopamine] |  |  |  |  |  | 38±4.8 |
